Assay results taken from patent US20080280920A1, “Plasminogen Activator Inhibitor-1 Inhibitors” (priority 2005, published 2008).

Legend:
[1] = system: 60 different human cancer cell lines; assay: NCI in vitro anticancer screen (whole panel); format: cell-based; settings: for growth and proliferation of human primary cancer cell-lines (in words): NCI screen, 48 h
HL-60(TB) = assay: NCI anticancer screen, HL-60(TB); format: cell-based, human; settings: Leukemia, 48 h
MOLT-4 = assay: NCI anticancer screen, MOLT-4; format: cell-based, human; settings: MOLT-4, Leukemia, 48 h
SR = assay: NCI anticancer screen, SR; format: cell-based, human; settings: Leukemia, 48 h
A549/ATCC = assay: NCI anticancer screen, A549/ATCC; format: cell-based, human; settings: Non-Small Cell Lung, 48 h
EKVX = assay: NCI anticancer screen, EKVX; format: cell-based, human; settings: Non-Small Cell Lung, 48 h
NCI-H226 = assay: NCI anticancer screen, NCI-H226; format: cell-based, human; settings: NCI-H226, Non-Small Cell Lung, 48 h
NCI-H322M = assay: NCI anticancer screen, NCI-H322M; format: cell-based, human; settings: Non-Small Cell Lung, 48 h
NCI-H460 = assay: NCI anticancer screen, NCI-H460; format: cell-based, human; settings: NCI-H460, Non-Small Cell Lung, 48 h
COLO 205 = assay: NCI anticancer screen, COLO 205; format: cell-based, human; settings: COLO 205, Colon, 48 h
HCC-2998 = assay: NCI anticancer screen, HCC-2998; format: cell-based, human; settings: HCC-2998, Colon, 48 h
HCT-15 = assay: NCI anticancer screen, HCT-15; format: cell-based, human; settings: HCT-15, Colon, 48 h
HT29 = assay: NCI anticancer screen, HT29; format: cell-based, human; settings: HT29, Colon, 48 h
SF-268 = assay: NCI anticancer screen, SF-268; format: cell-based, human; settings: SF-268, CNS, 48 h
SF-295 = assay: NCI anticancer screen, SF-295; format: cell-based, human; settings: SF-295, CNS, 48 h
SF-539 = assay: NCI anticancer screen, SF-539; format: cell-based, human; settings: SF-539, CNS, 48 h
SNB-19 = assay: NCI anticancer screen, SNB-19; format: cell-based, human; settings: SNB-19, CNS, 48 h
SK-MEL-2 = assay: NCI anticancer screen, SK-MEL-2; format: cell-based, human; settings: SK-MEL-2, Melanoma, 48 h
SK-MEL-28 = assay: NCI anticancer screen, SK-MEL-28; format: cell-based, human; settings: SK-MEL-28, Melanoma, 48 h
SK-MEL-5 = assay: NCI anticancer screen, SK-MEL-5; format: cell-based, human; settings: SK-MEL-5, Melanoma, 48 h
UACC-257 = assay: NCI anticancer screen, UACC-257; format: cell-based, human; settings: Homo sapiens; UACC-257, Melanoma, 48 h
UACC-62 = assay: NCI anticancer screen, UACC-62; format: cell-based, human; settings: UACC-62, Melanoma, 48 h
IGR-OV1 = assay: NCI anticancer screen, IGR-OV1; format: cell-based, human; settings: IGR-OV1, Ovarian, 48 h
OVCAR-5 = assay: NCI anticancer screen, OVCAR-5; format: cell-based, human; settings: OVCAR-5, Ovarian, 48 h
OVCAR-8 = assay: NCI anticancer screen, OVCAR-8; format: cell-based, human; settings: OVCAR-8, Ovarian, 48 h
SK-OV-3 = assay: NCI anticancer screen, SK-OV-3; format: cell-based, human; settings: SK-OV-3, Ovarian, 48 h
786-0 = assay: NCI anticancer screen, 786-0; format: cell-based, human; settings: 786-0, Renal, 48 h
A498 = assay: NCI anticancer screen, A498; format: cell-based, human; settings: A498, Renal, 48 h
SN12C = assay: NCI anticancer screen, SN12C; format: cell-based, human; settings: 48 h, Renal
TK-10 = assay: NCI anticancer screen, TK-10; format: cell-based, human; settings: TK-10, Renal, 48 h
UO-31 = assay: NCI anticancer screen, UO-31; format: cell-based, human; settings: UO-31, Renal, 48 h
PC-3 = assay: NCI anticancer screen, PC-3; format: cell-based, human; settings: PC-3, Prostate, 48 h
MCF7 = assay: NCI anticancer screen, MCF7; format: cell-based, human; settings: MCF7, Breast, 48 h
MDA-MB-435 = assay: NCI anticancer screen, MDA-MB-435; format: cell-based, human; settings: MDA-MB-435, Breast, 48 h
[2] = Homo sapiens, read-out: LC50 (the source's name)

For CC(C)(C)OC(=O)Nc1ccc(O)c(C(=O)NCCOC(=O)NCCNC(=O)c2cc(OCc3ccccc3)ccc2OCc2ccccc2)c1 [Compound Q012052, 2-[5-(BOC-amino)-2-hydroxybenzoylamino]ethyl 2-[2,5-bis-(benzyl-oxy)benzoylamino]ethylcarbamate], the “growth and proliferation of human primary cancer cell-lines (in words)” value [1] was “inhibited growth and proliferation”, the GI50 (HL-60(TB); Homo sapiens) was greater than 100 µM and the GI50 (MOLT-4; Homo sapiens) was 4.05 µM. The GI50 (SR; Homo sapiens) was 89.8 µM, the GI50 (A549/ATCC; Homo sapiens) was 68.8 µM and the GI50 (EKVX; Homo sapiens) was 35.1 µM. It also gave a GI50 (NCI-H226; Homo sapiens) greater than 100 µM, a GI50 (NCI-H322M; Homo sapiens) greater than 100 µM and a GI50 (NCI-H460; Homo sapiens) greater than 100 µM. It also gave a GI50 (COLO 205; Homo sapiens) of 8.97 µM, a GI50 (HCC-2998; Homo sapiens) greater than 100 µM and a GI50 (HCT-15; Homo sapiens) greater than 100 µM. The GI50 (HT29; Homo sapiens, HT-29) was greater than 100 µM, the GI50 (SF-268; Homo sapiens) was greater than 100 µM and the GI50 (SF-295; Homo sapiens) was 21.9 µM. It also gave a GI50 (SF-539; Homo sapiens) greater than 100 µM, a GI50 (SNB-19; Homo sapiens) greater than 100 µM and a GI50 (SK-MEL-2; Homo sapiens) greater than 100 µM. For the same molecule, the GI50 (SK-MEL-28; Homo sapiens) was greater than 100 µM, the GI50 (SK-MEL-5; Homo sapiens) was greater than 100 µM and the GI50 (UACC-257) was 15.6 µM. For the same molecule, the GI50 (UACC-62; Homo sapiens) was greater than 100 µM, the GI50 (IGR-OV1; Homo sapiens, IGROV-1) was 25.3 µM and the GI50 (OVCAR-5; Homo sapiens) was greater than 100 µM. It also gave a GI50 (OVCAR-8; Homo sapiens) greater than 100 µM, a GI50 (SK-OV-3; Homo sapiens) greater than 100 µM and a GI50 (786-0; Homo sapiens) greater than 100 µM. It also gave a GI50 (A498; Homo sapiens) greater than 100 µM, a GI50 (SN12C; Homo sapiens) greater than 100 µM and a GI50 (TK-10; Homo sapiens) greater than 100 µM. The GI50 (UO-31; Homo sapiens) was 19.9 µM, the GI50 (PC-3; Homo sapiens) was 24.9 µM and the GI50 (MCF7; Homo sapiens) was 17.1 µM. The GI50 (MDA-MB-435; Homo sapiens) was greater than 100 µM.

With CCOC(=O)c1ccc(CNCc2cc(CN3CCN(c4ccccn4)CC3)c(O)c(OC)c2)cc1 [Compound Q012135T] the “growth and proliferation of human primary cancer cell-lines (in words)” value [1] was “inhibited growth and proliferation”, the “cytostatic / cytotoxic effects on human cancer cell-lines (in words)” value ([1]; low micromolar concentrations, leukemia, melanoma, colon and central nervous system cell-lines) was “cytostatic and cytotoxic effects” and the GI50 (HL-60(TB); Homo sapiens) was 13.1 µM. The CC50 (HL-60(TB); [2]) was 13.1 µM, the TGI (HL-60(TB)) was 33.7 µM and the GI50 (MOLT-4; Homo sapiens) was 10.1 µM. For the same molecule, the CC50 (MOLT-4; [2]) was 10.1 µM, the TGI (MOLT-4) was 31.3 µM and the GI50 (SR; Homo sapiens) was 4.18 µM. The CC50 (SR; [2]) was 4.18 µM, the TGI (SR) was 20.6 µM and the GI50 (A549/ATCC; Homo sapiens) was 36.9 µM. The LC50 (A549/ATCC; Homo sapiens) was greater than 100 µM, the TGI (A549/ATCC) was greater than 100 µM and the GI50 (EKVX; Homo sapiens) was 21.3 µM. The CC50 (EKVX; [2]) was greater than 100 µM, the TGI (EKVX) was 62.1 µM and the GI50 (NCI-H226; Homo sapiens) was 19.8 µM. It also gave an LC50 (concentration giving 50% net cell kill) (NCI-H226; Homo sapiens) of 91.5 µM, a TGI (NCI-H226) of 42.6 µM and a GI50 (NCI-H322M; Homo sapiens) of 33.8 µM. The CC50 (NCI-H322M; [2]) was greater than 100 µM, the TGI (NCI-H322M) was greater than 100 µM and the GI50 (NCI-H460; Homo sapiens) was 20.2 µM. It also gave a CC50 (NCI-H460; [2]) of 70.4 µM, a TGI (NCI-H460) of 37.7 µM and a TGI (COLO 205) of 36.3 µM. It also gave a GI50 (COLO 205; Homo sapiens) of 17 µM, a CC50 (COLO 205; [2]) of 77.6 µM and a TGI (HCC-2998) of 31.6 µM. The GI50 (HCC-2998; Homo sapiens) was 15.3 µM, the LC50 (HCC-2998; Homo sapiens) was 65.1 µM and the TGI (HCT-15) was greater than 100 µM. The GI50 (HCT-15; Homo sapiens) was 26.9 µM, the CC50 (HCT-15; [2]) was greater than 100 µM and the TGI (HT29) was 31.8 µM. The GI50 (HT29; Homo sapiens, HT-29) was 17.1 µM, the CC50 (HT29; Homo sapiens, HT-29, read-out: LC50 (the source's name)) was 59 µM and the GI50 (SF-268; Homo sapiens) was 19.1 µM. For the same molecule, the LC50 (SF-268; Homo sapiens) was 71.1 µM, the TGI (SF-268) was 36.9 µM and the GI50 (SF-295; Homo sapiens) was 19.6 µM. For the same molecule, the CC50 (SF-295; [2]) was 73.5 µM, the TGI (SF-295) was 38.0 µM and the GI50 (SF-539; Homo sapiens) was 16 µM. The CC50 (SF-539; [2]) was 57.2 µM, the TGI (SF-539) was 30.2 µM and the GI50 (SNB-19; Homo sapiens) was 33.1 µM. The CC50 (SNB-19; [2]) was greater than 100 µM, the TGI (SNB-19) was greater than 100 µM and the GI50 (SK-MEL-2; Homo sapiens) was 17.2 µM. The CC50 (SK-MEL-2; [2]) was 79.5 µM, the TGI (SK-MEL-2) was 36.9 µM and the GI50 (SK-MEL-28; Homo sapiens) was 15.1 µM. The CC50 (SK-MEL-28; [2]) was 57.4 µM, the TGI (SK-MEL-28) was 29.5 µM and the GI50 (SK-MEL-5; Homo sapiens) was 12.9 µM. It also gave a CC50 (SK-MEL-5; [2]) of 51.8 µM, a TGI (SK-MEL-5) of 25.8 µM and a GI50 (UACC-62; Homo sapiens) of 20.1 µM. It also gave a CC50 (UACC-62; [2]) of 72.4 µM, a TGI (UACC-62) of 38.2 µM and a GI50 (IGR-OV1; Homo sapiens, IGROV-1) of 14.7 µM. It also gave a CC50 (IGR-OV1; Homo sapiens, IGROV-1, read-out: LC50 (the source's name)) greater than 100 µM, a TGI (IGR-OV1) of 43.4 µM and a GI50 (OVCAR-5; Homo sapiens) of 23.4 µM. It also gave a CC50 (OVCAR-5; [2]) of 91.7 µM, a TGI (OVCAR-5) of 46.3 µM and a GI50 (OVCAR-8; Homo sapiens) of 22.1 µM. For the same molecule, the CC50 (OVCAR-8; [2]) was greater than 100 µM, the TGI (OVCAR-8) was 49.1 µM and the GI50 (SK-OV-3; Homo sapiens) was 24.9 µM. The CC50 (SK-OV-3; [2]) was greater than 100 µM, the TGI (SK-OV-3) was 56.7 µM and the TGI (786-0) was 31.0 µM. For the same molecule, the GI50 (786-0; Homo sapiens) was 16.2 µM, the CC50 (786-0; [2]) was 59.2 µM and the TGI (A498) was 51.4 µM. The GI50 (A498; Homo sapiens) was 25.8 µM, the CC50 (A498; [2]) was greater than 100 µM and the GI50 (SN12C; Homo sapiens) was 21.7 µM. It also gave a CC50 (SN12C; [2]) greater than 100 µM, a TGI (SN12C) of 55.7 µM and a GI50 (TK-10; Homo sapiens) of 20.6 µM. For the same molecule, the CC50 (TK-10; [2]) was greater than 100 µM, the TGI (TK-10) was 46.3 µM and the GI50 (UO-31; Homo sapiens) was 11.5 µM. The CC50 (UO-31; [2]) was 61.6 µM, the TGI (UO-31) was 26.6 µM and the GI50 (PC-3; Homo sapiens) was 17.9 µM. The CC50 (PC-3; [2]) was greater than 100 µM, the TGI (PC-3) was 45.4 µM and the GI50 (MCF7; Homo sapiens) was 16.3 µM. It also gave a CC50 (MCF7; [2]) of 69.9 µM, a TGI (MCF7) of 33.7 µM and a GI50 (MDA-MB-435; Homo sapiens) of 16.9 µM. The CC50 (MDA-MB-435; [2]) was 87.1 µM and the TGI (MDA-MB-435) was 38.4 µM.
